# Source: US20230074558A1, “DIMERIC COMPOUNDS AS STING AGONISTS” (Mersana Therapeutics, Inc., priority 2019, published 2023)
# Key:
# Format in all cases: cell-based
# human STING = target: T1, human STING (Homo sapiens, UniProt Q86WV6, G230A/H232R/R293Q/R71H); test: Activation of human STING signaling in permeabilized THP1-Dual cells, IRF3 induction; conditions: digitonin-permeabilized THP1-Dual cells, 30 minutes on ice then 24 h
# T1 construct: host or cells: THP1-Dual cells, digitonin-permeabilized
# Experimental: 4×10^5 THP1-Dual™ cells (NF-κB-SEAP and IRF-Lucia luciferase Reporter Monocytes, Invivogen) were incubated with test Compounds in a 5-fold titration steps from […] in permeabilized buffer (50 mM HEPES pH 7.0, 100 mM KCl, 3 mM MgCl2, 85 mM sucrose, 0.2% BSA, 1 mM ATP, 0.1 mM GTP, 0.1 mM TTP, […]) for 30 minutes on ice. Cells were then washed and incubated in a fresh RPMI media with 10% FBS at 37° C. with 5% CO2 for 24 h. Cell culture supernatants from each sample were collected and NFkB and IRF3 were evaluated as above. Table B provides the results for IRF3 induction (“A” means <1 μM; “B” means ≥1 μM and <10 μM; “C” means ≥10 μM).
# [1] = target: T2, human STING (homozygous HAQ allele) (Homo sapiens, UniProt Q86WV6, G230A/H232R/R293Q/R71H); test: Activation of human STING signaling in THP1-Dual Human Monocytes cells, IRF3 luciferase reporter induction; conditions: 24 hours incubation
# T2 construct: THP1-Dual™ Human Monocytes cells with the homozygous HAQ allele, known to be a natural variant allele of STING; host or cells: THP1-Dual human monocytes
# Experimental: (§1) THP1-Dual™ Human Monocytes cells with the homozygous HAQ allele, known to be a natural variant allele of STING occurring in ˜20% of the human population (Invivogen) have been engineered with two independent gene reporter systems: a secreted embryonic alkaline phosphatase (SEAP) reporter gene for NFkB activity, and secreted luciferase reporter for […] (IRF3) activity were used. 4×10^5 THP1-Dual™ cells were incubated with test Compounds in a 5-fold titration steps from 1 to 0.0128 μM in RPMI media with 10% FBS, for 24 hours at 37° C. with 5% CO2. Cell culture supernatants (20 μl) from each incubated sample was added to resuspended QUANTI-Blue™ Solution (Invivogen, 180 μl) in each well of a flat-bottom 96-well plate, then incubated for 2 h. NFkB levels were evaluated using a spectrophotometer at 620-655 nm.
# (§2) To evaluate IRF3 reporter levels, cell culture supernatant (20 μl) from each incubated sample was added to QUANTI-Luc™ assay solution (Invivogen, 50 μl), and the luminescence was measured with a SpectraMax M3 spectrophotometer (Molecular Devices).
# (§3) The EC50 value was determined from the dose response curve based on reference Compounds. Table A provides the results for IRF3 reporter induction THP1-Dual™ Human Monocytes cells and Table B provides the results for IRF3 reporter induction in THP1-Dual™ KI-hSTING-R232 Cells (“A” means <1 μM; “B” means ≥1 μM and <10 μM; “C” means ≥10 μM).
# R232 hSTING variant = target: T3, R232 hSTING variant (Homo sapiens, UniProt Q86WV6, H232R); test: IRF3 reporter induction in THP1-Dual KI-hSTING-R232 Cells; conditions: THP1-Dual KI-hSTING-R232 Cells (R232 haplotype)
# T3 construct: host or cells: THP1-Dual KO-STING cells (knock-in: THP1-Dual KI-hSTING-R232)
# Experimental: as §1, §2
# NFkB and IRF3 reporter levels were also determined for THP1-Dual™ KI-hSTING-H232 Cells and THP1-Dual™ KI-hSTING-R232 Cells. THP1-Dual™ KI-hSTING-H232 Cells (R232H Haplotype) were generated from THP1-Dual™ KO-STING cells by knockin of the intronless coding sequence (from the ATG to TGA) of the R232H human STING variant (Invivogen). R232H has been identified as a natural variant allele of STING occurring in ˜14% of the human population. THP1-Dual™ KI-hSTING-R232 Cells (R232 Haplotype) were generated from THP1-Dual™ KO-STING cells by knockin of the intronless coding sequence (from the ATG to the TGA) of the R232 hSTING variant. Genomic studies indicate that this variant, which contains an arginine at position 232 (R232), is the most prevalent variant with an occurrence (homozygous allele) of ˜45-58% in the human population.
# as §3
# T1 sequence (Q86WV6 whole entry R71H/G230A/H232R/R293Q): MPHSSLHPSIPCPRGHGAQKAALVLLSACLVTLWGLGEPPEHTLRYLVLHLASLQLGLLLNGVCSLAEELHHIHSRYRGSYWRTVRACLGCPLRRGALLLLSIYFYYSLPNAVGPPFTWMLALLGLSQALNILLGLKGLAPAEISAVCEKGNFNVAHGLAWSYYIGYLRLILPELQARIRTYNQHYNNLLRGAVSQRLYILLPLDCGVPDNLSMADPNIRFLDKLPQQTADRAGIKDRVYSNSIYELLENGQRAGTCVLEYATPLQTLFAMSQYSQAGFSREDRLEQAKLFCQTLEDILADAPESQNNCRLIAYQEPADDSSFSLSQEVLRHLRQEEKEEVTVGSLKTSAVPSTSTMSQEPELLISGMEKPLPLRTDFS
# T2 sequence (Q86WV6 whole entry R71H/G230A/H232R/R293Q): as above
# T3 sequence (Q86WV6 whole entry H232R): as the sequence (Q86WV6 whole entry R71H/G230A/H232R/R293Q) above, with H71R, A230G, Q293R counted along it
EC50 (human STING) [µM],EC50 [1] [µM],EC50 (R232 hSTING variant) [µM],Structure (SMILES)
≥ 10,≥ 10,,"O=C(O)CCC(=O)c1cc2ccc(/C=C\c3ccc4cc(C(=O)CCC(=O)O)sc4c3)cc2s1 [Compound 36, (Z)-4,4′-(ethene-1,2-diylbis(benzo[b]thiophene-6,2-diyl))bis(4-oxobutanoic acid)]"
,≥ 10,≥ 10,COc1cc2sc(C(=O)CCC(=O)O)cc2cc1NCCC(=O)Nc1cc2cc(C(=O)CCC(=O)O)sc2cc1OC [Compound 226]
,≥ 10,,COC(=O)CCC(=O)c1cc2c(F)c(OCC3(COc4c(OC)cc5sc(C(=O)CCC(=O)OC)cc5c4F)COC3)c(OC)cc2s1 [Compound 262]
≥ 10,≥ 10,,"O=C(O)CCC(=O)c1nc2ccc(/C=C\c3ccc4nc(C(=O)CCC(=O)O)sc4c3)cc2s1 [Compound 6, (Z)-4,4′-(ethene-1,2-diylbis(benzo[d]thiazole-6,2-diyl))bis(4-oxobutanoic acid)]"
,≥ 10,≥ 10,COc1cc2sc(C(=O)CCC(=O)O)cc2c(F)c1OCC(=CC(=O)F)COc1c(OC)cc2sc(C(=O)CCC(=O)O)cc2c1F [Compound 208]
,≥ 10,≥ 10,COc1cc2sc(C(=O)CCC(=O)O)cc2c(F)c1OCC(=CC(=O)OC(C)(C)C)COc1c(OC)cc2sc(C(=O)CCC(=O)O)cc2c1F [Compound 209]
,< 1,< 1,"C=C(COc1c(OC)cc2sc(C(=O)CCC(=O)O)cc2c1F)COc1c(OC)cc2sc(C(=O)CCC(=O)O)cc2c1F [Compound 202, 4,4′-(((2-methylenepropane-1,3-diyl)bis(oxy))bis(4-fluoro-6-methoxybenzo[b]-thiophene-5,2-diyl))bis(4-oxobutanoic acid)]"
,≥ 10,≥ 10,COc1cc2sc(C(=O)CCC(=O)O)cc2cc1/C=C/C(=O)Nc1cc2cc(C(=O)CCC(=O)O)sc2cc1OC [Compound 229]
,≥ 10,≥ 10,COc1cc2sc(C(=O)CCC(=O)O)cc2cc1NC(=O)C1(C(=O)Nc2cc3cc(C(=O)CCC(=O)O)sc3cc2OC)CC1 [Compound 205]
,< 1,< 1,"COc1cc2sc(C(=O)CCC(=O)O)cc2c(F)c1OCc1ccccc1COc1c(OC)cc2sc(C(=O)CCC(=O)O)cc2c1F [Compound 211, 4,4′-(((1,2-phenylenebis(methylene))bis(oxy))bis(4-fluoro-6-methoxybenzo[b]thiophene-5,2-diyl))bis(4-oxobutanoic acid)]"
,< 1,1 to 10,"COc1cc2sc(C(=O)CCC(=O)O)cc2c(F)c1OC/C=C/COc1c(OC)cc2sc(C(=O)CCC(=O)O)cc2c1F [Compound 203, (E)-4,4′-((but-2-ene-1,4-diylbis(oxy))bis(4-fluoro-6-methoxybenzo[b]thiophene-5,2-diyl))bis(4-oxobutanoic acid)]"
,≥ 10,≥ 10,COc1cc2sc(C(=O)CCC(=O)O)cc2cc1NC(=O)C1(C(=O)Nc2cc3cc(C(=O)CCC(=O)O)sc3cc2OC)CCOCC1 [Compound 218]
,< 1,< 1,"COc1cc2sc(C(=O)CCC(=O)O)cc2c(F)c1OCC(=CCO)COc1c(OC)cc2sc(C(=O)CCC(=O)O)cc2c1F [Compound 210, 4,4′-(((2-(2-hydroxyethylidene)propane-1,3-diyl)bis(oxy))bis(4-fluoro-6-methoxybenzo[b]thiophene-5,2-diyl))bis(4-oxobutanoic acid)]"

# The next lines start with the compound.
Structure (SMILES),EC50 (human STING) [µM],EC50 [1] [µM],EC50 (R232 hSTING variant) [µM]
COc1cc2sc(C(=O)CCC(=O)O)cc2cc1NC(=O)CCOc1c(OC)cc2sc(C(=O)CCC(=O)O)cc2c1F [Compound 206],,≥ 10,< 1
"O=C(O)CCC(=O)c1cc2ccc(NC(=O)Nc3ccc4cc(C(=O)CCC(=O)O)sc4c3)cc2s1 [Compound 25, 4,4′-((carbonylbis(azanediyl))bis(benzo[b]thiophene-6,2-diyl))bis(4-oxobutanoic acid)]",≥ 10,≥ 10,
C=C(COc1c(OC)cc2sc(C(=O)CCC(=O)OC)nc2c1F)COc1c(OC)cc2sc(C(=O)CCC(=O)OC)nc2c1F [compound 264],,< 1,≥ 10
COc1cc2sc(C(=O)CCC(=O)O)cc2cc1NC(=O)COc1c(OC)cc2sc(C(=O)CCC(=O)O)cc2c1F [Compound 222],,≥ 10,≥ 10
COc1cc2sc(C(=O)CCC(=O)O)cc2cc1NC(=O)CC(=O)Nc1cc2cc(C(=O)CCC(=O)O)sc2cc1OC [Compound 224],,≥ 10,≥ 10
COc1cc2sc(C(=O)CCC(=O)O)cc2cc1NC(=O)C1(C(=O)Nc2cc3cc(C(=O)CCC(=O)O)sc3cc2OC)CCC1 [Compound 223],,≥ 10,≥ 10
"COc1cc2sc(C(=O)CCC(=O)O)cc2c(F)c1OC/C=C\COc1c(OC)cc2sc(C(=O)CCC(=O)O)cc2c1F [Compound 204, (Z)-4,4′-((but-2-ene-1,4-diylbis(oxy))bis(4-fluoro-6-methoxybenzo[b]-thiophene-5,2-diyl))bis(4-oxobutanoic acid)]",,< 1,< 1
"O=C(O)CCC(=O)c1cc2ccc(CNC(=S)NCc3ccc4cc(C(=O)CCC(=O)O)sc4c3)cc2s1 [Compound 48, 4,4′-(((thiocarbonylbis(azanediyl))bis(methylene))bis(benzo[b]thiophene-6,2-diyl))bis(4-oxobutanoic acid)]",≥ 10,≥ 10,
O=C(O)CCC(=O)c1nc2ccc(NC(=O)COc3ccc4nc(C(=O)CCC(=O)O)sc4c3)cc2s1 [Compound 18],,< 1,
"C=C(COc1cc2cc(C(=O)CCC(=O)O)sc2cc1OC)COc1c(OC)cc2sc(C(=O)CCC(=O)O)cc2c1F [Compound 207, 4-(5-((2-(((2-(3-carboxypropanoyl)-4-fluoro-6-methoxybenzo[b]thiophen-5-yl)oxy)methyl)allyl)oxy)-6-methoxybenzo[b]thiophen-2-yl)-4-oxobutanoic acid]",,< 1,< 1
COc1cc2sc(C(=O)CCC(=O)O)cc2c(F)c1OCC#CCOc1c(OC)cc2sc(C(=O)CCC(=O)O)cc2c1F [Compound 227],,≥ 10,≥ 10
"C=C(COc1cc2cc(C(=O)CCC(=O)O)sc2cc1OC)COc1cc2cc(C(=O)CCC(=O)O)sc2cc1OC [Compound 40, 4,4′-(((2-methylenepropane-1,3-diyl)bis(oxy))bis(6-methoxybenzo[b]-thiophene-5,2-diyl))bis(4-oxobutanoic acid)]",,< 1,≥ 10
COc1cc2sc(C(=O)CCC(=O)O)cc2cc1CCC(=O)Nc1cc2cc(C(=O)CCC(=O)O)sc2cc1OC [Compound 219],,≥ 10,≥ 10
"O=C(O)CCC(=O)c1nc2ccc(-c3ccccc3-c3ccc4nc(C(=O)CCC(=O)O)sc4c3)cc2s1 [Compound 9, 4,4′-(1,2-phenylenebis(benzo[d]thiazole-6,2-diyl))bis(4-oxobutanoic acid)]",≥ 10,≥ 10,
COc1cc2sc(C(=O)CCC(=O)O)cc2cc1NC(=O)C1CCN(c2cc3cc(C(=O)CCC(=O)O)sc3cc2OC)C1=O (stereo not shown) [Compound 221],,≥ 10,≥ 10
COc1cc2sc(C(=O)CCC(=O)O)cc2cc1CCCC(=O)Nc1cc2cc(C(=O)CCC(=O)O)sc2cc1OC [Compound 220],,≥ 10,≥ 10
"O=C(O)CCC(=O)c1cc2ccc(-c3ccccc3-c3ccc4cc(C(=O)CCC(=O)O)sc4c3)cc2s1 [Compound 30, 4,4′-(1,2-phenylenebis(benzo[b]thiophene-6,2-diyl))bis(4-oxobutanoic acid)]",1 to 10,1 to 10,
